Measured values taken from patent US20150164064A1, “METHODS, COMPOSITIONS AND DEVICES FOR INDUCING STASIS IN CELLS, TISSUES, ORGANS, AND ORGANISMS” (Fred Hutchinson Cancer Research Center, priority 2003, published 2015).
“Also recorded” adds a separate entry of the source. Like-named read-outs stand apart in the source and are kept apart here.

Legend:
hif-1(ia04) embryos = assay: Viability and suspended animation of nematodes in carbon monoxide based atmospheres (hif-1 mutant); type: in vivo, C. elegans
Description: Viability of nematodes in carbon monoxide based atmospheres. 30-60 embryos were harvested from continuously maintained Bristol N2 and […] strains as described above. Environmental chambers were continuously perfused at room temperature with pure CO (grade CP) or 500 ppm O2/CO at 70 cc/min for 24 hrs. To achieve 2500 ppm O2/CO or 2500 ppm O2/N2, 5000 ppm O2/N2 was mixed at a 1:1 ratio with either pure CO or pure N2 using two mass flow controllers (Sierra Instruments 810) to precisely monitor flow. Each gas was delivered into a 3-way valve (Cole-Parmer #A-30600-23) at 50 cc/min and the resulting mixture was then passed through a gas washing bottle and into an environmental chamber throughout the 24 hour exposure. All gases were supplied by Byrne Gas (Seattle, Wash.). The 500 ppm O2/CO mixture was certified to ±2% of the oxygen content and contained […] to ensure a consistent O2/CO ratio throughout the use of the tank.
Cell biological analysis. To determine the extent of developmental progression in nitrogen-based atmospheres (Table 2), 2-cell embryos were exposed to various degrees of hypoxia as described above and were either immediately photographed, or photographed following a […] recovery period in a humid chamber. […]

humans [1] = conditions: cited from earlier work
human keratinocytes = assay: Preservation of human skin in carbon monoxide; keratinocyte growth and colony formation; type: cell-based
Experimental: Three human foreskins were obtained for this purpose. The foreskin tissue was preserved in keratinocyte growth medium (KGM) containing insulin, EGF (0.1 ng/ml), hydrocortisone ([…]) and bovine pituitary extract (approx. 50 micrograms/ml of protein). Foreskins were rinsed in PBS, and excess fatty tissue was removed. Each foreskin sample was divided into 2 equal pieces. Each piece was placed into a separate container containing a solution of PBS with 24 mg/ml of Dispase II (from Bacillus Polmyxa EC 3.4.24.4:Roche Diagnostics Corp., Indianapolis, Ind.). One container (containing a foreskin piece in PBS with Dispase II) was kept in a humid chamber in a fume hood. The other container (with the other half of the foreskin in PBS with Dispase II) was placed in the same fume hood in an environmental chamber perfused with humidified 100% CO. Both samples were maintained at room temperature for 24 hrs. Methods used to establish defined atmospheric conditions were identical to those used in Example 1. […]
Cells were inspected visually using an inverted phase contrast microscope. […] Quantitation of the number of viable keratinocytes as judged by colony formation was quantified for two of the three foreskins.

[2] = test system: wild-type C. elegans embryos (Bristol N2); assay: Viability and suspended animation of nematodes in carbon monoxide based atmospheres (wild-type); type: in vivo
Description: To achieve specific atmospheric conditions the following apparatus was used: a glass syringe barrel having a tip with a locking device such as a LUER-LOK with the large opening of the barrel sealed with a custom-machined steel and rubber fitting to make an airtight seal was locked to via locking device to the inlet port of an environmental chamber having an inlet and an outlet port each fitted with a locking devices such as a LUER-LOK fitting. A defined gas was humidified and provided to the environmental chamber by first venting the gas from a compressed tank (Byrne Specialty Gas, Seattle, Wash.) through a gas washing bottle (500 ml Kimex) filled with double distilled water. The gas washing bottle was connected to the environmental chamber past a gas-flow meter. A gas flow meter was used to provide a regulated 70 cc/min flow through the environmental chamber throughout the 24 hr incubation.
To test whether induced, reversible stasis could be achieved in C. elegans nematodes, 2-cell C. elegans embryos, L3 larvae or adult nematodes were collected and exposed to either an environment of effectively 100% CO, an environment of 100% N2, an environment comprising 500 ppm oxygen balanced with carbon monoxide, or to environments comprising 100, 500 or 1000 ppm oxygen balanced with nitrogen at room temperature. Nematodes were visualized using differential interference contrast microscopy (also known as Nomarski optics), images were collected and analyzed using NIH image and Adobe Photoshop 5.5. Embryos are approximately 50 μm in length.
Enviromental chambers and apparati. Oxygen deprivation experiments were carried out using a custom atmospheric chamber designed by W. Van Voorhies (Van Voorhies et al., 2000). The chamber is a 30 mL glass syringe (Fisher #14-825-10B) fitted with a custom steel stopper that is lined with two viton o-rings to ensure a tight seal. The stopper is bored through and has a steel lure lock on the exterior face so that a hose carrying compressed gas can be attached. A defined gas mixture is delivered to the chamber at a constant pressure and flow rate from compressed tanks by passing first through a rotometer (Aalborg, flow-tube number 032-41ST) or mass flow controller (Sierra Instruments #810) to monitor flow rate and then through a 500 ml gas washing bottle (Fisher #K28220-5001) containing 250 ml water to hydrate the gas. ¼″ OD nylon (Cole-Parmer #P-06489-06) or FEP (Cole-Parmer #A-06450-05) tubing was used and connections between tubing and the regulators and between the tubing and the rotometers were made with brass John-Guest-type fittings (Byrne Gas). All other connections were made with either microflow quick-connect fittings (Cole-Parmer #A-06363-57, #A-06363-52) or standard lure fittings (Cole-Parmer #A-06359-37, #A-06359-17).
Viability of nematodes in hypoxia. […] Log-phase, adult C. elegans were picked into a drop of sterile water containing 100 μg/ml ampicillin, 15 μg/ml tetracycline and 200 μg/ml streptomycin on a glass plate. Adults were chopped with a razor blade and 2-cell embryos were picked using a mouth pipet. 30-60 2-cell embryos were transferred to a small glass boat (custom made to fit atmospheric chambers, Avalon Glass Works, Seattle Wash.) filled with 3 ml of 1% agarose in M9. […] Embryos were scored for hatching 24 hours after exposure and hatched L1's were transferred to the surface of the NGM plate and followed to adulthood. […]

humans [3] = conditions: 500 ppm; cited from earlier work
mice [4] = test system: mice
mice [5] = assay: Core body temperature, heart rate and movement of mice by telemetry in regulated H2S atmosphere; type: in vivo, mouse; conditions: 80 ppm
Description: Implantation of telemetry devices.
Exposure of Mice to Regulated Atmosphere.
Regulation of Ambient Temperature. […] Mice were exposed to regulated atmosphere as described above.

mice [6] = conditions: 80 ppm, cited from earlier work
rats = conditions: cited from earlier work

SMILES: [C-]#[O+] [CO, carbon monoxide]
- viability (survival) to adulthood (hif-1(ia04) embryos; 0.25 kPa O2/CO, 24 hrs, hif-1(ia04) embryos): 84.0%
- suspended animation (hif-1(ia04) embryos; 0.25 kPa O2 balanced with carbon monoxide, hif-1(ia04)): entered into suspended animation
- symptoms in humans (humans [1]; 50 ppm): no symptoms
- symptoms in humans (humans [1]; 200 ppm, within two-three hours): slight headache
- symptoms in humans (humans [1]; 400 ppm, within one to two hours): frontal headache
- symptoms in humans (humans [1]; 800 ppm, within 45 minutes): dizziness, nausea, and/or convulsions
- symptoms in humans (humans [1]; 800 ppm, within two hours): insensible
- lethality (humans [1]; around 1000 ppm, exposure more than around 1-2 minutes): can expire
- keratinocyte growth (visual inspection) (human keratinocytes; all three populations, 100% CO 24 hr): significant growth
- cell survival in CO relative to room air (human keratinocytes; human skin, 100% CO, after 24 hrs): 100 fold
- suspended animation ([2]; 0.25 kPa O2 balanced with carbon monoxide, wild-type): entered into suspended animation
- suspended animation ([2]; 100% CO (101 kPa CO), 24 hrs): entered into suspended animation
- suspended animation ([2]; 100% CO (101 kPa CO), 24 hrs, listed as carbon monoxide): induced reversible suspended animation
- lethality to nematodes ([2]; 100% CO, 24 hr, room temperature): not lethal
- suspended animation and survival ([2]; 500 ppm oxygen (0.05 kPa O2) balanced with carbon monoxide, 24 hrs): entered into suspended animation and survived; also recorded: arrested embryogenesis

SMILES: S [H2S, hydrogen sulfide]
- acute effect of extreme levels (humans [3]): sudden collapse and unconsciousness
- behavior compared to untreated animals (mice [4]; after 80 ppm, cabinet 10.5°C): no apparent change in the behavior
- behavior tests (SHIRPA protocol) before and after exposure (mice [4]; after gas exposure): no detectable behavioral differences
- behavior of the animals (mice [4]; four mice maintained for 4 weeks after 80 ppm, 6 hr, 15°C): no apparent change in the behavior
- core body temperature repeatedly reached on demand (mice [5]): 13-15 °C
- tolerability (mice [6]; exposures up to ten weeks): innocuous
- toxicology, gross and histopathological examination (mice [6]; mice, 6 hrs per day, 5 days per week, 90 days): no observed adverse effect
- perinatal exposure effect on cerebellar Purkinje cells (rats; 20 or 50 ppm, 7 hours per day, gestation through post-natal day 21): longer dendritic branches with reduced aborization of cerebellar Purkinje cells
- perinatal study, neuropathology and behavior of rat pups (rats; 80 ppm): no neuropathological effects or altered motor activity, passive avoidance, or acoustic startle response
- behavioral toxicity, avoidance responses (rats; moderate levels, immediately after end of exposure): inhibits discriminated avoidance responses
- behavioral toxicity, maze learning (rats; moderate levels): interferes with the ability of rats to learn a baited radial arm maze task
- toxicology, gross and histopathological examination (rats; rats, 80 ppm, 6 hrs per day, 5 days per week, 90 days): no observed adverse effect
